How the values were obtained:
Assay in all cases: Kinase profiling in a biochemical assay panel (mobility shift assays and ELISA), %-inhibition at 1 μM; selectivity entropy
[1] = biological target: T1, panel of more than 300 wild-type and mutant kinases (313 kinase panel) (Homo sapiens, UniProt P29320)
T1 sequence (P29320 21-983): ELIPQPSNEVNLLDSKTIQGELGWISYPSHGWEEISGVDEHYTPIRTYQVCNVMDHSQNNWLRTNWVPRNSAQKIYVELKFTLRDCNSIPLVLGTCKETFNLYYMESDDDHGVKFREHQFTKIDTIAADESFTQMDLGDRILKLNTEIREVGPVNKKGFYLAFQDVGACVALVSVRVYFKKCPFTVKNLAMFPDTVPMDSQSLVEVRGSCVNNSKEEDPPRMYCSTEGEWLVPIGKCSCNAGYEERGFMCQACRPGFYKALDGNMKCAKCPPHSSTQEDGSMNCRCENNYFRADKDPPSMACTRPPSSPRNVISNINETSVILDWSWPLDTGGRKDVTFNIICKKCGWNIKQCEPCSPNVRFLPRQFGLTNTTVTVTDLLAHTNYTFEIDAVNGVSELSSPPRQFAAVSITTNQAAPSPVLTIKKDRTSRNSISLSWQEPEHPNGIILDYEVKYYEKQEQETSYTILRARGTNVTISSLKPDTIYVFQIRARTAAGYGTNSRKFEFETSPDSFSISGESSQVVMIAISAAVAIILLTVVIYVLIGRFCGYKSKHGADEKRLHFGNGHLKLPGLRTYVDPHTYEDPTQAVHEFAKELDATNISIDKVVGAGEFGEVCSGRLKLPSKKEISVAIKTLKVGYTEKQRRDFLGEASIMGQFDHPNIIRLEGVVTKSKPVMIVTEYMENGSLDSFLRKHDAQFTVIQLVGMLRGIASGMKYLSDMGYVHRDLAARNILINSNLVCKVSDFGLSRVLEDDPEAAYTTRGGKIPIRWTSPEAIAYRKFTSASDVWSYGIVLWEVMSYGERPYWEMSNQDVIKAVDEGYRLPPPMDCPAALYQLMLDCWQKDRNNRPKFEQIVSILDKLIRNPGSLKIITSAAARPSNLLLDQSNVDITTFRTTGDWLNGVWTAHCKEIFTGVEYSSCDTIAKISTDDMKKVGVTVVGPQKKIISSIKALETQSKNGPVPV

[2] = biological target: T2, panel of more than 300 wild-type and mutant kinases (313 kinase panel) (Homo sapiens, UniProt P42681)
T2 sequence (P42681 1-527): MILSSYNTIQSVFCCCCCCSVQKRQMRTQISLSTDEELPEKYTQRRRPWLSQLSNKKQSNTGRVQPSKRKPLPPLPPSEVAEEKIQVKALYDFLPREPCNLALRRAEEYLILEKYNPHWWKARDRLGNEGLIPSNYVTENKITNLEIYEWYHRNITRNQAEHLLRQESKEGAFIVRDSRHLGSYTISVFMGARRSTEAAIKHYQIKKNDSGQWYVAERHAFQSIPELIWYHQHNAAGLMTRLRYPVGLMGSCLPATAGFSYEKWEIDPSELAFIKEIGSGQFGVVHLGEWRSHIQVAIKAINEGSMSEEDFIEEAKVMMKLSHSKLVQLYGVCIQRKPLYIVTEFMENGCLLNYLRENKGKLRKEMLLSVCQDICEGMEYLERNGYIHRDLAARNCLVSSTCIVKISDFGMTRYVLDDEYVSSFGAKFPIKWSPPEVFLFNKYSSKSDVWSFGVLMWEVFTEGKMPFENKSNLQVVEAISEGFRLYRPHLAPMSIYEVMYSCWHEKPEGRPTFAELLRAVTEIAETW

[3] = biological target: panel of more than 300 wild-type and mutant kinases (313 kinase panel) (Homo sapiens, UniProt P54646)
[4] = biological target: panel of more than 300 wild-type and mutant kinases (313 kinase panel) (Homo sapiens, UniProt Q16539)
panel of more than 300 wild-type and mutant kinases (313 kinase panel) (Homo sapiens, UniProt Q16539), sequence (Q16539 whole entry, change not shown): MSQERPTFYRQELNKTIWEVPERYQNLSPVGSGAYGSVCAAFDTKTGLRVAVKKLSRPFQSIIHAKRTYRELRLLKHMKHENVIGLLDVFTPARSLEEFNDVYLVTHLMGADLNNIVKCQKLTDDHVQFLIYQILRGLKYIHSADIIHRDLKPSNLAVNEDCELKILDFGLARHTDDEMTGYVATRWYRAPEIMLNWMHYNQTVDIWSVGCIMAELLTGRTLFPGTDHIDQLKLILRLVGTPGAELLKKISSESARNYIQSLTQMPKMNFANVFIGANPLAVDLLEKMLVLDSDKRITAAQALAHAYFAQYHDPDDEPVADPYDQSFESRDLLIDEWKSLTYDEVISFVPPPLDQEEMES

[5] = biological target: panel of more than 300 wild-type and mutant kinases (313 kinase panel) (Homo sapiens, UniProt P11362)
panel of more than 300 wild-type and mutant kinases (313 kinase panel) (Homo sapiens, UniProt P11362), sequence (P11362 22-822, change not shown): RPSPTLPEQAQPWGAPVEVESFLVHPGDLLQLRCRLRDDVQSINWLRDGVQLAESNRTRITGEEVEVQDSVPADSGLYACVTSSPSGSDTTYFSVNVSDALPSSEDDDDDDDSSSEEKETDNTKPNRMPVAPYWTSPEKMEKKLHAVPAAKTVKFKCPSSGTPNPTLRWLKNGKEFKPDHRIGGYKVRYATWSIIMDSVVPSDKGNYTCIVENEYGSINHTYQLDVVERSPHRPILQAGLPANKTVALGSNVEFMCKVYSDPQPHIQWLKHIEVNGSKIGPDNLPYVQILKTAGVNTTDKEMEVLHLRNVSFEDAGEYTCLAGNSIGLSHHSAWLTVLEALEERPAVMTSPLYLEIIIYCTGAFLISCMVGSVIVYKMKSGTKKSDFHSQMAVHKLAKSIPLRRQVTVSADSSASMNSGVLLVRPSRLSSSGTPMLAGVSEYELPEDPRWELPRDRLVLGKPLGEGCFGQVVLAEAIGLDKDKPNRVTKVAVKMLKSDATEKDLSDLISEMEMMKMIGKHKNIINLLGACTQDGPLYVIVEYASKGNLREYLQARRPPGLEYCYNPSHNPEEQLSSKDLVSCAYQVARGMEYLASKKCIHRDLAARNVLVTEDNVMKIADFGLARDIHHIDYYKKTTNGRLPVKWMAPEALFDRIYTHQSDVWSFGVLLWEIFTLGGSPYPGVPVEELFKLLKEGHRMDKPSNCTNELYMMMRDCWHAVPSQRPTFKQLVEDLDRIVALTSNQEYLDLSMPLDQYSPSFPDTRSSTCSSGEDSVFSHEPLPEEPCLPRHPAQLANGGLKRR

[6] = biological target: panel of more than 300 wild-type and mutant kinases (313 kinase panel) (Homo sapiens, UniProt P53779)
panel of more than 300 wild-type and mutant kinases (313 kinase panel) (Homo sapiens, UniProt P53779), sequence (P53779 whole entry, change not shown): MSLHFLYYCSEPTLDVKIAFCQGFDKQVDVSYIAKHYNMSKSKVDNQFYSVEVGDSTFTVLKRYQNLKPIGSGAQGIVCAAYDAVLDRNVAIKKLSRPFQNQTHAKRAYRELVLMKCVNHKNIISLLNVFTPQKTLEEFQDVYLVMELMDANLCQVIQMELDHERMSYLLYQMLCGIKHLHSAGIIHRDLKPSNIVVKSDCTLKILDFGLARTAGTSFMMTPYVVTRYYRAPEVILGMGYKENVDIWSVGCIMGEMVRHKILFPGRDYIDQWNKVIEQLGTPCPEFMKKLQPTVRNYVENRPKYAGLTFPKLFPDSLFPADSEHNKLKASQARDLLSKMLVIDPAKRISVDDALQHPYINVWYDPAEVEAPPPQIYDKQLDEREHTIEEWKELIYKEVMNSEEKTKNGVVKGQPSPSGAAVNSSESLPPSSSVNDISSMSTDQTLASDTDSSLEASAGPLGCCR

[7] = kinase AMPKα2/β1/γ1, 1 μM compound

Row | Structure (SMILES) | %-inhibition of EPHA3 ([1]; kinase EPHA3, compound at 1 μM) | %-inhibition of TXK ([2]; kinase TXK, compound at 1 μM) | %-inhibition, AMPKα2/β1/γ1 [3, 7] | %-inhibition of p38α ([4]; kinase p38α, 1 μM) | %-inhibition of FGFR1 ([5]; kinase FGFR1, compound at 1 μM) | %-inhibition of JNK3 ([6]; kinase JNK3, compound at 1 μM) | %-inhibition of FGFR1 ([5]; 1 µM) | %-inhibition of EPHA3 ([1]; 1 µM) | %-inhibition of JNK3 ([6]; 1 µM) | %-inhibition, AMPKα2/β1/γ1 ([3]; 1 µM) | %-inhibition of p38α ([4]; 1 µM) | %-inhibition of TXK ([2]; 1 µM)
1 | COc1cc(Nc2c(C#N)cnc3cc(OCCCN4CCN(C)CC4)c(OC)cc23)c(Cl)cc1Cl [bosutinib] | 67% | 72% | 10% | 9% |  |  |  |  |  |  |  | 
2 | COc1cc2nccc(Oc3ccc(NC(=O)C4(C(=O)Nc5ccc(F)cc5)CC4)cc3)c2cc1OC [cabozantinib] | 97% | 18% | 1.75% | 37% | 16% | -2% |  |  |  |  |  | 
3 | C[C@@H](Oc1cc(-c2cnn(C3CCNCC3)c2)cnc1N)c1c(Cl)ccc(F)c1Cl [crizotinib] | 19% | 39% | 27% | -2.27% | 17% | -1.87% |  |  |  |  |  | 
4 | CC(C)(C)c1nc(-c2cccc(NS(=O)(=O)c3c(F)cccc3F)c2F)c(-c2ccnc(N)n2)s1 [dabrafenib] | 18% | 18% |  |  | 10% | 5.59% |  |  |  |  |  | 
5 | Cc1nc(Nc2ncc(C(=O)Nc3c(C)cccc3Cl)s2)cc(N2CCN(CCO)CC2)n1 [dasatinib] |  |  |  | 91% |  |  |  |  |  |  |  | 
6 | C#Cc1cccc(Nc2ncnc3cc(OCCOC)c(OCCOC)cc23)c1 [erlotinib] |  |  |  |  |  |  | 24% | 15% | 22% | 4.43% | -0.474% | 
7 | CO[C@H]1C[C@@H]2CC[C@@H](C)[C@@](O)(O2)C(=O)C(=O)N2CCCC[C@H]2C(=O)O[C@H]([C@H](C)C[C@@H]2CC[C@@H](OCCO)[C@H](OC)C2)CC(=O)[C@H](C)/C=C(\C)[C@@H](O)[C@@H](OC)C(=O)[C@H](C)C[C@H](C)/C=C/C=C/C=C/1C [everolimus] | -20% | -4.36% | -6% | -4.27% | -8% | -4.31% |  |  |  |  |  | 
8 | O=S(=O)(c1cccc2cnccc12)N1CCCNCC1 [fasudil] | -7% | 1% | 5% | -7% | -0.145% | -4% |  |  |  |  |  | 
9 | CS(=O)(=O)CCNCc1ccc(-c2ccc3ncnc(Nc4ccc(OCc5cccc(F)c5)c(Cl)c4)c3c2)o1 [lapatinib] |  |  |  | -3% | -0.636% | 11% |  | 0.372% |  | -7.39% |  | 0.699%
10 | Cc1cn(-c2cc(NC(=O)c3ccc(C)c(Nc4nccc(-c5cccnc5)n4)c3)cc(C(F)(F)F)c2)cn1 [nilotinib] | 87% | 16% | -0.54% |  | -29% | 39% |  |  |  |  | 92% | 
11 | Cc1ccc(Nc2nccc(N(C)c3ccc4c(C)n(C)nc4c3)n2)cc1S(N)(=O)=O [pazopanib] | 10% | 52% | 0.826% | 10% |  |  |  |  |  |  |  | 
12 | Cc1ccc(C(=O)Nc2ccc(CN3CCN(C)CC3)c(C(F)(F)F)c2)cc1C#Cc1cnc2cccnn12 [ponatinib] | 102% | 98% | 89% | 101% | 101% |  |  |  |  |  |  | 
13 | CNC(=O)c1cc(Oc2ccc(NC(=O)Nc3ccc(Cl)c(C(F)(F)F)c3)c(F)c2)ccn1 [regorafenib] | 80% | -2.18% | 16% | 94% |  | 5% |  |  |  |  |  | 
14 | N#CC[C@H](C1CCCC1)n1cc(-c2ncnc3[nH]ccc23)cn1 [ruxolitinib] | 2% | 10% |  | -2.16% | 24% | -3% |  |  |  | 7.49% |  | 
15 | CO[C@H]1C[C@@H]2CC[C@@H](C)[C@@](O)(O2)C(=O)C(=O)N2CCCC[C@H]2C(=O)O[C@H]([C@H](C)C[C@@H]2CC[C@@H](OC(=O)C(C)(CO)CO)[C@H](OC)C2)CC(=O)[C@H](C)/C=C(\C)[C@@H](O)[C@@H](OC)C(=O)[C@H](C)C[C@H](C)/C=C/C=C/C=C/1C [temsirolimus] | -21% | -7% | -4% | -5% | -6.47% | -1.22% |  |  |  |  |  | 
16 | CC(=O)Nc1cccc(-n2c(=O)n(C3CC3)c(=O)c3c(Nc4ccc(I)cc4F)n(C)c(=O)c(C)c32)c1 [trametinib] | -6% | -4.66% | 1.21% | -4% | -1.45% | -2.37% |  |  |  |  |  | 
17 | COc1cc2c(Nc3ccc(Br)cc3F)ncnc2cc1OCC1CCN(C)CC1 [vandetanib] | 57% | 60% | 4.74% | 18% |  | -0.407% |  |  |  |  |  | 
18 | CCCS(=O)(=O)Nc1ccc(F)c(C(=O)c2c[nH]c3ncc(-c4ccc(Cl)cc4)cc23)c1F [vemurafenib] | -7.52% | 5% | 6.49% | 10% | 21% | 2.85% |  |  |  |  |  | 

From PMC3961306, “Comparison of the Cancer Gene Targeting and Biochemical Selectivities of All Targeted Kinase Inhibitors Approved for Clinical Use” (PLoS ONE, 2014)
